# Data published in patent publication US10618903B2, “Heteroaryl substituted aminopyridine compounds” (BRISTOL-MYERS SQUIBB COMPANY, priority 2015, dated 2020).
# Target: IRAK4 (Homo sapiens (Human), UniProt Q9NWZ3)
# Experiment: IRAK4 Inhibition Assay
# Type: biochemical
# Details: ATP 500 μM; IRAK4 0.6 nM
# Method: The assays were performed in U-bottom 384-well plates. The final assay volume was 30 μL prepared from 15 μL additions of enzyme and substrates (fluoresceinated peptide and ATP) and test compounds in assay buffer (20 mM HEPES pH 7.2, 10 mM MgCl2, 0.015% Brij 35 and 4 mM DTT). The reaction was initiated by the combination of IRAK4 with substrates and test compounds. The reaction mixture was incubated at room temperature for 60 min. and terminated by adding 45 μL of 35 mM EDTA to each sample. The reaction mixture was analyzed on the Caliper LABCHIP® 3000 (Caliper, Hopkinton, Mass.) by electrophoretic separation of the fluorescent substrate and phosphorylated product. Inhibition data were calculated by comparison to no enzyme control reactions for 100% inhibition and vehicle-only reactions for 0% inhibition. The final concentrations of reagents in the assays are ATP, 500 μM; FL-IPTSPITTTYFFFKKK peptide 1.5 μM; IRAK4, 0.6 nM; and DMSO, 1.6%.
# IRAK4, sequence (Q9NWZ3 whole entry): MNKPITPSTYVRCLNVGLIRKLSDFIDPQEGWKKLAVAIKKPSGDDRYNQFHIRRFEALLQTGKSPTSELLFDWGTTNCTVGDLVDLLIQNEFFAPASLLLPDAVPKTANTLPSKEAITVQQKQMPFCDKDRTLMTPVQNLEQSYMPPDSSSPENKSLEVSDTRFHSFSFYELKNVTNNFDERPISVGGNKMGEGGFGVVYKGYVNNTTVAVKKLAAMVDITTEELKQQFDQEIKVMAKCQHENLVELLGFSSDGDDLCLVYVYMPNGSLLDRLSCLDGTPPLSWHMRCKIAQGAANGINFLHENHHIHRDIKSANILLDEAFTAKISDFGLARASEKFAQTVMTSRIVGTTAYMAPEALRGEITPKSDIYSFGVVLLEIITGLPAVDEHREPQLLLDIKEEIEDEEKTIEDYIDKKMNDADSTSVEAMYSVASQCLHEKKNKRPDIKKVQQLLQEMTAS
row,IC50 [nM],Structure (SMILES)
1,5,"CC(C)(O)[C@H](F)CNC(=O)c1cnc(-c2cnn3cc(Cl)cnc23)cc1NCC(F)(F)F [Example 64, (R)-6-(6-chloropyrazolo[1,5-a]pyrimidin-3-yl)-N-(2-fluoro-3-hydroxy-3-methylbutyl)-4-((2,2,2-trifluoroethyl)amino)nicotinamide]"
2,22,"COC1CC(Nc2cc(-c3cnn4cc(Cl)cnc34)ncc2C(=O)NC[C@@H](F)C(C)(C)O)CC1(F)F (single isomer, unassigned) [Example 14]"
3,47,"CC(C)Nc1cc(-c2cnn3cc(Cl)cnc23)ncc1C(=O)NCCC(=O)N1CCOCC1 [Example 62, 6-(6-chloropyrazolo[1,5-a]pyrimidin-3-yl)-4-(isopropylamino)-N-(3-morpholino-3-oxopropyl)nicotinamide]"
4,24,"CC(C)Nc1cc(-c2cnn3cc(Cl)cnc23)ncc1C(=O)N[C@H]1CC[C@H](C(=O)NC(C)C)CC1 [Example 29, 6-(6-chloropyrazolo[1,5-a]pyrimidin-3-yl)-4-(isopropylamino)-N-((1r,4r)-4-(isopropylcarbamoyl)cyclohexyl)nicotinamide]"
5,75,"CC(C)Nc1cc(-c2cnn3cc(C4CC4)cnc23)ncc1C(=O)NC[C@@H](F)C(C)(C)O [Example 128, (R)-6-(6-cyclopropylpyrazolo[1,5-a]pyrimidin-3-yl)-N-(2-fluoro-3-hydroxy-3-methylbutyl)-4-(isopropylamino)nicotinamide]"
6,4,"CC(C)(O)[C@H](F)CNC(=O)c1cnc(-c2cnn3cc(Cl)cnc23)cc1NC1CCOC1 (stereo partly drawn) [Example 53, 6-(6-chloropyrazolo[1,5-a]pyrimidin-3-yl)-N—((R)-2-fluoro-3-hydroxy-3-methylbutyl)-4-((tetrahydrofuran-3-yl)amino)nicotinamide]"
7,5,"CC(C)Nc1cc(-c2cnn3cc(Cl)cnc23)ncc1C(=O)NCC(F)C1(O)COC1 (stereo not drawn) [Example 9, 6-(6-chloropyrazolo[1,5-a]pyrimidin-3-yl)-N-(2-fluoro-2-(3-hydroxyoxetan-3-yl)ethyl)-4-(isopropylamino)nicotinamide]"
8,42,"CC(C)(O)[C@H](F)CNC(=O)c1cnc(-c2cnn3cc(C#N)cnc23)cc1NCC1(O)CCCOC1 (single isomer, unassigned) [Example 123]"
9,8,"CC(C)Nc1cc(-c2cnn3cc(Cl)cnc23)ncc1C(=O)NCCc1ccc(S(N)(=O)=O)cc1 [Example 26, 6-(6-chloropyrazolo[1,5-a]pyrimidin-3-yl)-4-(isopropylamino)-N-(4-sulfamoylphenethyl)nicotinamide]"
10,99,"CC(C)Nc1cc(-c2cnn3cc(Cl)cnc23)ncc1C(=O)Nc1cnn(CC(=O)NC[C@@H](F)C(C)(C)O)c1 [Example 10, (R)-6-(6-chloropyrazolo[1,5-a]pyrimidin-3-yl)-N-(1-(2-((2-fluoro-3-hydroxy-3-methylbutyl)amino)-2-oxoethyl)-1H-pyrazol-4-yl)-4-(isopropylamino)nicotinamide]"
11,35,"CNC(=O)[C@H]1CC[C@H](NC(=O)c2cnc(-c3cnn4cc(Cl)cnc34)cc2NCC(C)(C)F)CC1 [Example 24, 6-(6-chloropyrazolo[1,5-a]pyrimidin-3-yl)-4-((2-fluoro-2-methylpropyl)amino)-N-((1r,4r)-4-(methylcarbamoyl)cyclohexyl)nicotinamide]"
12,17,"CC(C)(O)[C@H](F)CNC(=O)c1cnc(-c2cnn3cc(Cl)cnc23)cc1N[C@@H]1COC[C@H]1F [Example 43, 6-(6-chloropyrazolo[1,5-a]pyrimidin-3-yl)-N—((R)-2-fluoro-3-hydroxy-3-methylbutyl)-4-(((3R,4S)-4-fluorotetrahydrofuran-3-yl)amino)nicotinamide]"
13,9,"CC(C)Nc1cc(-c2cnn3cc(Cl)cnc23)ncc1C(=O)NCCC1(O)CCC(C)(O)CC1 (stereo not drawn) [Example 55, 6-(6-chloropyrazolo[1,5-a]pyrimidin-3-yl)-N-(2-(1,4-dihydroxy-4-methylcyclohexyl)ethyl)-4-(isopropylamino)nicotinamide]"
14,99,"CC(C)Nc1cc(-c2cnn3cc(Cl)cnc23)ncc1C(=O)N[C@@H]1CC[C@@H](CO)OC1 [Example 77, 6-(6-chloropyrazolo[1,5-a]pyrimidin-3-yl)-N-((3R,6S)-6-(hydroxymethyl)tetrahydro-2H-pyran-3-yl)-4-(isopropylamino)nicotinamide]"
15,5,"CC(C)(O)[C@H](F)CNC(=O)c1cnc(-c2cnn3cc(Cl)cnc23)cc1N[C@@H]1CCN(c2ncc(F)cn2)C1 [Example 36, 6-(6-chloropyrazolo[1,5-a]pyrimidin-3-yl)-N—((R)-2-fluoro-3-hydroxy-3-methylbutyl)-4-(((R)-1-(5-fluoropyrimidin-2-yl)pyrrolidin-3-yl)amino)nicotinamide]"
16,44,"CC(C)(O)[C@H](F)CNC(=O)c1cnc(-c2cnn3cc(C#N)cnc23)cc1NC1CCCC1O (stereo partly drawn) [Example 103, 6-(6-cyanopyrazolo[1,5-a]pyrimidin-3-yl)-N—((R)-2-fluoro-3-hydroxy-3-methylbutyl)-4-((2-hydroxycyclopentyl)amino)nicotinamide]"
17,81,"CC(C)Nc1cc(-c2cnn3cccnc23)ncc1C(=O)NC[C@@H](F)C(C)(C)O [Example 127, (R)—N-(2-fluoro-3-hydroxy-3-methylbutyl)-4-(isopropylamino)-6-(pyrazolo[1,5-a]pyrimidin-3-yl)nicotinamide]"

# The next lines start with the molecule.
row,Structure (SMILES),IC50 [nM]
1,"CC[C@H](O)CNc1cc(-c2cnn3cc(C#N)cnc23)ncc1C(=O)NC[C@@H](F)C(C)(C)O [Example 125, 6-(6-cyanopyrazolo[1,5-a]pyrimidin-3-yl)-N—((R)-2-fluoro-3-hydroxy-3-methylbutyl)-4-(((S)-2-hydroxybutyl)amino)nicotinamide]",56
2,"CC(C)(O)[C@H](F)CNC(=O)c1cnc(C2=C3N=CC(C#N)C=C3N=N2)cc1N[C@@H]1CCCN(C(=O)CC(F)(F)F)C1 (stereo partly drawn) [Example 108, 6-(6-cyano-6H-pyrazolo[4,3-b]pyridin-3-yl)-N—((R)-2-fluoro-3-hydroxy-3-methylbutyl)-4-(((R)-1-(3,3,3-trifluoropropanoyl)piperidin-3-yl)amino)nicotinamide]",67
3,"CNC(=O)[C@H]1CC[C@H](NC(=O)c2cnc(-c3cnn4cc(C#N)cnc34)cc2NCC(C)(C)F)CC1 [Example 102, 6-(6-cyanopyrazolo[1,5-a]pyrimidin-3-yl)-4-((2-fluoro-2-methylpropyl)amino)-N-((1r,4r)-4-(methylcarbamoyl)cyclohexyl)nicotinamide]",80
4,"CC(C)(O)CNc1cc(-c2cnc3cccnn23)ncc1C(=O)NC[C@@H](F)C(C)(C)O [Example 138, (R)—N-(2-fluoro-3-hydroxy-3-methylbutyl)-4-((2-hydroxy-2-methylpropyl)amino)-6-(imidazo[1,2-b]pyridazin-3-yl)nicotinamide]",62
5,"CC(Nc1cc(-c2cnn3cc(C#N)cnc23)ncc1C(=O)NC[C@@H](F)C(C)(C)O)c1cccnc1 (stereo partly drawn) [Example 113, 6-(6-cyanopyrazolo[1,5-a]pyrimidin-3-yl)-N—((R)-2-fluoro-3-hydroxy-3-methylbutyl)-4-((1-(pyridin-3-yl)ethyl)amino)nicotinamide]",53
6,"COc1cnn2c(-c3cc(NC4COC4)c(C(=O)NC[C@@H](F)C(C)(C)O)cn3)cnc2c1 [Example 154, (R)—N-(2-fluoro-3-hydroxy-3-methylbutyl)-6-(7-methoxyimidazo[1,2-b]pyridazin-3-yl)-4-(oxetan-3-ylamino)nicotinamide]",16
7,"CC(C)(O)[C@H](F)CNC(=O)c1cnc(-c2cnc3cccnn23)cc1NC1COCC1O (single isomer, unassigned) [Example 135]",44
8,"CC(C)(O)[C@H](F)CNC(=O)c1cnc(-c2cnc3ccc(NCCO)nn23)cc1NC1COC1 [Example 140, (R)—N-(2-fluoro-3-hydroxy-3-methylbutyl)-6-(6-((2-hydroxyethyl)amino)imidazo[1,2-b]pyridazin-3-yl)-4-(oxetan-3-ylamino)nicotinamide]",6
9,"CC(C)(O)[C@H](F)CNC(=O)c1cnc(-c2cnn3cc(C#N)cnc23)cc1N[C@@H]1CCN(c2cncnc2)C1 [Example 119, 6-(6-cyanopyrazolo[1,5-a]pyrimidin-3-yl)-N—((R)-2-fluoro-3-hydroxy-3-methylbutyl)-4-(((R)-1-(pyrimidin-5-yl)pyrrolidin-3-yl)amino)nicotinamide]",9
10,"CC(C)(O)[C@H](F)CNC(=O)c1cnc(-c2cnn3cc(C#N)cnc23)cc1N[C@H]1COC[C@@H]1F (single isomer, unassigned) [Example 117]",39
11,"CC(C)(O)[C@H](F)CNC(=O)c1cnc(-c2cnc3cccnn23)cc1NC1COC1 [Example 131, (R)—N-(2-fluoro-3-hydroxy-3-methylbutyl)-6-(imidazo[1,2-b]pyridazin-3-yl)-4-(oxetan-3-ylamino)nicotinamide]",13
12,"CC(C)Nc1cc(-c2cnc(-c3cccc(C#N)c3)o2)ncc1C(=O)NC[C@@H](F)C(C)(C)O [Example 155, (R)-6-(2-(3-cyanophenyl)oxazol-5-yl)-N-(2-fluoro-3-hydroxy-3-methylbutyl)-4-(isopropylamino)nicotinamide]",55
13,"CC(C)(O)[C@H](F)CNC(=O)c1cnc(-c2cnc3cccnn23)cc1NC1CCOCC1 [Example 132, (R)—N-(2-fluoro-3-hydroxy-3-methylbutyl)-6-(imidazo[1,2-b]pyridazin-3-yl)-4-((tetrahydro-2H-pyran-4-yl)amino)nicotinamide]",9
